For 1 molecule, IC50 results are on record in BindingDB's records for PubMed 34214508 (Roche Innovation Center Shanghai, 2021).

This test can be described thus: Inhibition of mouse TNF-alpha in mouse L929 cells incubated for 18 hrs by CellTitreGlo assay.

pIC50: −log10 of the molar value.

Regarding `Cc1ccc(C)c(Cn2c(C(O)c3ccncc3)nc3ccc(-c4cnn(C)c4)cc32)c1` (stereo unspecified), the pIC50 (commonly −log10 of the IC50, conventionally taken in molar units) is 6.90.
